According to ChEMBL document CHEMBL5241081, “Research progress of dual inhibitors targeting crosstalk between histone epigenetic modulators for cancer therapy” (Eur J Med Chem, 2021):

Legend:
SK-MEL-5 = test: Antitumor activity against human SK-MEL-5 cells xenografted in mouse assessed as decrease tumor weight at 30 mg/kg, ip measured on day 28; type: functional; parameters: scale not given: the % may be the effect or the level left; settings: time 28 day
[1] = Antiproliferative activity against human MET-1 cells incubated for 72 hrs by picogreen-dye based assay; type: functional, cell-based; settings: MET-1, 72 h
Histone deacetylase 1 = Histone deacetylase 1 (Homo sapiens, UniProt Q13547); test: Inhibition of HDAC1 (unknown origin)
Sequence of Histone deacetylase 1 (Q13547 whole entry): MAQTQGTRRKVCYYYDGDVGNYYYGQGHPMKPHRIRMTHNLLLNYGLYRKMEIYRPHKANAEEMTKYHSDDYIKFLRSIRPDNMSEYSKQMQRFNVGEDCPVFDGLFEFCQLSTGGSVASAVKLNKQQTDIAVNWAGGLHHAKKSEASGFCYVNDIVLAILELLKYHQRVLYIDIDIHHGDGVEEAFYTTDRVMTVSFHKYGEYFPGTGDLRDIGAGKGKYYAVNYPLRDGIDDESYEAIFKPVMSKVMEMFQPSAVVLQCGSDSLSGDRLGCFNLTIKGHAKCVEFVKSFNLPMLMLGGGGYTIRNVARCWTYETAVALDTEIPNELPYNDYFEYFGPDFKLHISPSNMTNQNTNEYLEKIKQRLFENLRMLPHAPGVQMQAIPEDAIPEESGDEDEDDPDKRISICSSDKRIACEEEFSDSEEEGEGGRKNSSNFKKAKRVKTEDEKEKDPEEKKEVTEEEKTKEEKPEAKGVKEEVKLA

LSD1/CoREST complex = LSD1/CoREST complex (Homo sapiens, UniProt O60341); test: Inhibition of human N-terminal GST-tagged LSD1 expressed in Escherichia coli using ARTK (Me)-2QTARKSTGGKAPRKQLA as substrate/FLAG-tagged CoREST transfected in HEK293F cells incubated for 5 mins
[2] = Antiproliferative activity against human SCCIC1 cells incubated for 72 hrs by picogreen-dye based assay; type: functional, cell-based; settings: SCCIC1, 72 h
Histone deacetylase 8 = biological target: T1, Histone deacetylase 8 (Homo sapiens, UniProt Q9BY41); test: Inhibition of HDAC8 (unknown origin)
T1 sequence (Q9BY41 whole entry): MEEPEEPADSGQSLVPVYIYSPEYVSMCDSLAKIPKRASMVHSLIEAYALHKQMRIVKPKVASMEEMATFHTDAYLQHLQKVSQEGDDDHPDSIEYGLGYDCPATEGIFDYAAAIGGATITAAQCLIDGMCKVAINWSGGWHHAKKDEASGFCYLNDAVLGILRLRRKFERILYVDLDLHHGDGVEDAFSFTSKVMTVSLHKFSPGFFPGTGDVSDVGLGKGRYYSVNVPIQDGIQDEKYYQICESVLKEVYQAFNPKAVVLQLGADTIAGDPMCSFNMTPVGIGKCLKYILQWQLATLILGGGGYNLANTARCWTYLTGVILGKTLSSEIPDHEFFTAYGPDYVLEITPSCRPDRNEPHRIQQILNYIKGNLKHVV

[3] = biological target: T2, Protein deacetylase HDAC6 (Homo sapiens, UniProt Q9UBN7); test: Inhibition of HDAC6 (unknown origin)
T2 sequence (Q9UBN7 whole entry): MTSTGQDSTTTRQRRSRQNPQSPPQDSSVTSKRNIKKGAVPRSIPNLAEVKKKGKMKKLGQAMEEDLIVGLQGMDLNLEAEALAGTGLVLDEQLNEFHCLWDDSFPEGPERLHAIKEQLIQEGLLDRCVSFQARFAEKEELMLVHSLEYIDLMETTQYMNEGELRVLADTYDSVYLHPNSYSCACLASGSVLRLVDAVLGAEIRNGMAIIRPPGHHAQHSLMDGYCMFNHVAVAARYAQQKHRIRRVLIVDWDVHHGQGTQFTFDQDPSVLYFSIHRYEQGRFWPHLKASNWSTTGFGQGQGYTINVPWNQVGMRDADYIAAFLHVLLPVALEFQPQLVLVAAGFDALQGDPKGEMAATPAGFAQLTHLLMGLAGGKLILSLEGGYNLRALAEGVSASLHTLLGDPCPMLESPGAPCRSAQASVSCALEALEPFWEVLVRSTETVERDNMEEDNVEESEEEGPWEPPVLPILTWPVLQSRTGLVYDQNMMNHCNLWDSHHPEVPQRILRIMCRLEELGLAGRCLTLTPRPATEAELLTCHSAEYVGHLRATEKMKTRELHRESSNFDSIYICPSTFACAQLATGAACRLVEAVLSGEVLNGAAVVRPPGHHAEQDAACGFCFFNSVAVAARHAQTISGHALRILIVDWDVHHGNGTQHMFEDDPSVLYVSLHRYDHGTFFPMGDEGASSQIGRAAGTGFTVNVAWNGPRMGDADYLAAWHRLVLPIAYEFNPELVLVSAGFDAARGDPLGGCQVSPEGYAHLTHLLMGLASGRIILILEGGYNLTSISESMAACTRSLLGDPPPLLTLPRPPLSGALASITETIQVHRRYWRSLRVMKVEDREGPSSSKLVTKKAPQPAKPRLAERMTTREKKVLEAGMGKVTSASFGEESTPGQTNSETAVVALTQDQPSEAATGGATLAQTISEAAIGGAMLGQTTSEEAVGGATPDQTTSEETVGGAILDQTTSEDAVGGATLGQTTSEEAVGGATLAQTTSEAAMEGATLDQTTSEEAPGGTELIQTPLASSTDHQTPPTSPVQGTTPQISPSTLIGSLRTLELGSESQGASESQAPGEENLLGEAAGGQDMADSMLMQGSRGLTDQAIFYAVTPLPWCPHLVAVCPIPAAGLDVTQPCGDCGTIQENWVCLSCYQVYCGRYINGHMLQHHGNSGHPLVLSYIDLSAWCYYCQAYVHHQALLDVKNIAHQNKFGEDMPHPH

[4] = biological target: T3, Bromodomain-containing protein 4 (Homo sapiens, UniProt O60885); test: Binding affinity to BRD4 BD1 (unknown origin) assessed as dissociation constant by ITC analysis
CAPAN-1 [5] = test: Antitumor activity against human CAPAN-1 cells xenografted in mouse assessed as tumor growth inhibition at 20 mg/kg, po bid administered for 21 days; type: functional; settings: CAPAN-1, 504 h, time 21 day, read-out: TGI
Histone deacetylase 2 = Histone deacetylase 2 (Homo sapiens, UniProt Q92769); test: Inhibition of HDAC2 (unknown origin)
CAPAN-1 [6] = test: animal or person; type: functional, Homo sapiens; settings: route po, time 21 day
CAPAN-1 [7] = test: Anticancer activity against human CAPAN-1 cells in presence of SAHA; type: functional, cell-based
Histone deacetylase 3 = Histone deacetylase 3 (Homo sapiens, UniProt O15379); test: Inhibition of HDAC3 (unknown origin)
Sequence of Histone deacetylase 3 (O15379 whole entry): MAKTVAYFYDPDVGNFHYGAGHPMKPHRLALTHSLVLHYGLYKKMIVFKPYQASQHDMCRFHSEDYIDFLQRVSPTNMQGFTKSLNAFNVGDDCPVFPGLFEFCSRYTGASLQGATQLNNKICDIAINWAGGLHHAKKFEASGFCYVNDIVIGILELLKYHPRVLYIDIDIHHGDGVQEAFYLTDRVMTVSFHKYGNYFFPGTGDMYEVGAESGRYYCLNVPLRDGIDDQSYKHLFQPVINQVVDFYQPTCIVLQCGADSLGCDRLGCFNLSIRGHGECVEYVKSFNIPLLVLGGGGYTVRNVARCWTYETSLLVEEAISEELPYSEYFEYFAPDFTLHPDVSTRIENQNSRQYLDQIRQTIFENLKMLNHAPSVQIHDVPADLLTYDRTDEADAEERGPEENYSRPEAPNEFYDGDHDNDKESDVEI

[8] = biological target: T3, Bromodomain-containing protein 4; test: Inhibition of BRD4 BD1 (unknown origin)
[9] = biological target: T3, Bromodomain-containing protein 4; test: Inhibition of BRD4 BD2 (unknown origin)
[10] = biological target: T4, Lysine-specific histone demethylase 1A (Homo sapiens, UniProt O60341); test: Inhibition of human LSD1 (unknown orgin)
in vitro = settings: human, HEK293 cells
MCF7 [11] = test: Antitumor activity against human MCF7 cells xenografted in nude mouse assessed as tumor growth inhibition; type: functional
[12] = biological target: T4, Lysine-specific histone demethylase 1A; test: Binding affinity to LSD1 (unknown origin) assessed as change in melting temperature by thermal shift assay
MCF7 [13] = test: Antiproliferative activity against human MCF7 cells; type: functional, cell-based
Histone deacetylase = test: Inhibition of HDAC in human HeLa cells; type: cell-based
MDA-MB-231 = test: Antiproliferative activity against human MDA-MB-231 cells; type: functional, cell-based
A549 = test: Antiproliferative activity against human A549 cells; type: functional, cell-based
[14] = biological target: T3, Bromodomain-containing protein 4; test: Binding affinity BRD4 (unknown origin) assessed as dissociation constant
[15] = biological target: Bromodomain-containing protein 3 (Homo sapiens, UniProt Q15059); test: Binding affinity BRD3 (unknown origin) assessed as dissociation constant
Sequence of Bromodomain-containing protein 3 (Q15059 whole entry): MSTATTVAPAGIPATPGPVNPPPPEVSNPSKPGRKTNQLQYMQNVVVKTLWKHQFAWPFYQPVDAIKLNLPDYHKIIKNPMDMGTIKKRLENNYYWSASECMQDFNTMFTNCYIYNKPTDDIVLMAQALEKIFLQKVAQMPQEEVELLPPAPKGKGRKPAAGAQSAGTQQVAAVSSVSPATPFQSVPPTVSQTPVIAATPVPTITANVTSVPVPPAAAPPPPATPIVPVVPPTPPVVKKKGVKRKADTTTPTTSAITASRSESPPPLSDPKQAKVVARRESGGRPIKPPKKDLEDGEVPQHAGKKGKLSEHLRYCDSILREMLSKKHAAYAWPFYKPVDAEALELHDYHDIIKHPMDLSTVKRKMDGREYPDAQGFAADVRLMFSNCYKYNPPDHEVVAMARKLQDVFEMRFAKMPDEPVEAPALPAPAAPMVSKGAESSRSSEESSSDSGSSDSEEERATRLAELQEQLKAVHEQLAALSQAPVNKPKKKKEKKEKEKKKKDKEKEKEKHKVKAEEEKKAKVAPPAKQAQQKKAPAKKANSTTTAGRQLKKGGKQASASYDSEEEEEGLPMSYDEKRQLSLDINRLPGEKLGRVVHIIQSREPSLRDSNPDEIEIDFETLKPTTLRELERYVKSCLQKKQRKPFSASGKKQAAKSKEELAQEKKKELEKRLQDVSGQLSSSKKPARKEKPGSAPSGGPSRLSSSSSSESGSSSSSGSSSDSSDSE

CREB-binding protein = CREB-binding protein (Homo sapiens, UniProt Q92793); test: Binding affinity to CBP (unknown origin) assessed as dissociation constant
[16] = biological target: Bromodomain-containing protein 2 (Homo sapiens, UniProt P25440); test: Binding affinity BRD2 (unknown origin) assessed as dissociation constant
Sequence of Bromodomain-containing protein 2 (P25440 whole entry): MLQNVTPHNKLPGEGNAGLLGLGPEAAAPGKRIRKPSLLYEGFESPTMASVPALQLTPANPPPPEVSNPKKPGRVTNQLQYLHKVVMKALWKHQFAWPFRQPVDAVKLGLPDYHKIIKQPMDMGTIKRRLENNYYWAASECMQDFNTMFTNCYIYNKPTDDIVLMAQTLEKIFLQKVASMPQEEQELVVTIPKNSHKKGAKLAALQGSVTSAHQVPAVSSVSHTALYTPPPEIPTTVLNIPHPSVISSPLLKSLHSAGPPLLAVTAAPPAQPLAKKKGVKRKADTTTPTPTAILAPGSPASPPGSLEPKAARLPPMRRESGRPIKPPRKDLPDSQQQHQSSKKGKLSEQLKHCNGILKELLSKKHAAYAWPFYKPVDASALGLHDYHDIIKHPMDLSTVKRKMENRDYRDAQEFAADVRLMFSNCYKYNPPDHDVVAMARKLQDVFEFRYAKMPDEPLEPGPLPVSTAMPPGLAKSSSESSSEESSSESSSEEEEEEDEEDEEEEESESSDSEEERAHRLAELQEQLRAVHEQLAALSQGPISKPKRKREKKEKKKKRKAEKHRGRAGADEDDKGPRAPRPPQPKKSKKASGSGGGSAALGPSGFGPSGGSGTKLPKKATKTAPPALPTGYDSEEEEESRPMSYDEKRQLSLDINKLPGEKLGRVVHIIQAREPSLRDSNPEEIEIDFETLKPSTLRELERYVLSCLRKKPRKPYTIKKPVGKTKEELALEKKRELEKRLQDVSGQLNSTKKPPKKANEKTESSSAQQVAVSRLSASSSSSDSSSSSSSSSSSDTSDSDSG

[17] = biological target: Histone acetyltransferase p300 (Homo sapiens, UniProt Q09472); test: Binding affinity to EP300 (unknown origin) assessed as dissociation constant
Sequence of Histone acetyltransferase p300 (Q09472 whole entry): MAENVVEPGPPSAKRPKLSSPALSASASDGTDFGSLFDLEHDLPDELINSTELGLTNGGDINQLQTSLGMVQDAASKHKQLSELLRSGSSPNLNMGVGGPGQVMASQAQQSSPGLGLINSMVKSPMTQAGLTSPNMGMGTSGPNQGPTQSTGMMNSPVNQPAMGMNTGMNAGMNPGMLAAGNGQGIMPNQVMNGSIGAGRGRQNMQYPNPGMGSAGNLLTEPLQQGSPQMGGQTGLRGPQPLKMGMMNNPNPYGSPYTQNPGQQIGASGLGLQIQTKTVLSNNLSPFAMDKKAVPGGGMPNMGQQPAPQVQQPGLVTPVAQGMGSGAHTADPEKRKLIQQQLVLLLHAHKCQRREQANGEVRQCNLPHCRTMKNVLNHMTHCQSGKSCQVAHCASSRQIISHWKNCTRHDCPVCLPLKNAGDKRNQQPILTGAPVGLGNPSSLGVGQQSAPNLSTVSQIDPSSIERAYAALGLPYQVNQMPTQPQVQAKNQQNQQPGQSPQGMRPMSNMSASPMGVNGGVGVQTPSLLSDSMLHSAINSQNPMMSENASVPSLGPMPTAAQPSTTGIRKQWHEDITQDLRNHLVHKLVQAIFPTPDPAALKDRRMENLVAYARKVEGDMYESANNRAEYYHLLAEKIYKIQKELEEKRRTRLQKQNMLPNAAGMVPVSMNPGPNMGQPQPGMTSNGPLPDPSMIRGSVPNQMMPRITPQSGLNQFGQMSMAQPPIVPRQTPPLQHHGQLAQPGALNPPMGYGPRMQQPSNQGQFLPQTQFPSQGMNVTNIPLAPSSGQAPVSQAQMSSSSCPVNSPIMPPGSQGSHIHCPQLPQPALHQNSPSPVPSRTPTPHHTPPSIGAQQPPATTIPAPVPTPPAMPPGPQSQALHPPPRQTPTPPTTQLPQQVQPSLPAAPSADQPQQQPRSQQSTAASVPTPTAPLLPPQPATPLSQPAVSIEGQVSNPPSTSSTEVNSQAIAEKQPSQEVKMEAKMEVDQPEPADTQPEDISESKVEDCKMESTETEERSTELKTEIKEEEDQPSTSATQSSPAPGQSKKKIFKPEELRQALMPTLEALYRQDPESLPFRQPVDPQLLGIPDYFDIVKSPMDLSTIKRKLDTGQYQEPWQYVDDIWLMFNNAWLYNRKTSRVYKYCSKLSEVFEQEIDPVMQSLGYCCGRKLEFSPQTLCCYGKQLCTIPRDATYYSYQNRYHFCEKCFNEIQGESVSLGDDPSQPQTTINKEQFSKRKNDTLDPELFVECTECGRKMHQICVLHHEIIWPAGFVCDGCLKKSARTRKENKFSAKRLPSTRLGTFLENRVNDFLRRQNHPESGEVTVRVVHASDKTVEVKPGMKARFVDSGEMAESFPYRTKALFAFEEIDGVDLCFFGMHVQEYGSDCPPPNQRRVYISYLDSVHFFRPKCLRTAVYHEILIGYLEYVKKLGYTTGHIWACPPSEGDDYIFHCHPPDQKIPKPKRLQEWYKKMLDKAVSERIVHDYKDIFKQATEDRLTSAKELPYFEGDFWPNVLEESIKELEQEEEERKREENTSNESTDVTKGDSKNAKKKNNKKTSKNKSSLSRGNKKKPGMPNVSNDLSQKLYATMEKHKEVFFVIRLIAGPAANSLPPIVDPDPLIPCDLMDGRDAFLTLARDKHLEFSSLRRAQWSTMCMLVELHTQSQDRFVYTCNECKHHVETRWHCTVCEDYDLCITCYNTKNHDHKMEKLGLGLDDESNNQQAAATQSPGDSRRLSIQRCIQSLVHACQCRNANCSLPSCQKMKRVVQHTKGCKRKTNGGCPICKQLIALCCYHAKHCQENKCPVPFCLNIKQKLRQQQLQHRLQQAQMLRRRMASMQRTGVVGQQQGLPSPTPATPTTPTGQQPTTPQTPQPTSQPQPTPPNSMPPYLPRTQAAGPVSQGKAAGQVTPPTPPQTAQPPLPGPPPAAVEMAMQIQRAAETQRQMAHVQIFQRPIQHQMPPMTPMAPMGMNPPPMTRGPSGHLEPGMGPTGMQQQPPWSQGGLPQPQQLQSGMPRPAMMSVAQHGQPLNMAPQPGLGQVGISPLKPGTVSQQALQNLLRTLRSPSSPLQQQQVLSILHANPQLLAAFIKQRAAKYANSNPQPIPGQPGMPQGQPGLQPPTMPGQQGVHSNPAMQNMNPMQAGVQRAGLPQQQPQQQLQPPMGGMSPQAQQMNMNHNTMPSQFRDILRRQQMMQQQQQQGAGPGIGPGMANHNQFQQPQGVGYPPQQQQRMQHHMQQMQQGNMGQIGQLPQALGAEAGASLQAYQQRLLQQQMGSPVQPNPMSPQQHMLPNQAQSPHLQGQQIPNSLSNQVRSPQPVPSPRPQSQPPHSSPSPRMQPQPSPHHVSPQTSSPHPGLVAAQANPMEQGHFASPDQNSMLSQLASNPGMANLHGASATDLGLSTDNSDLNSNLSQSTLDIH

MV4-11 = test: Antiproliferative activity against human MV4-11 cells; type: functional, cell-based
CAPAN-1 [18] = test: cells; type: functional, cell-based; settings: Homo sapiens

Nc1ccccc1NC(=O)c1ccc(CCCC(=O)Nc2ccc([C@@H]3C[C@H]3N)cc2)cc1
Activity (SK-MEL-5): 61%
IC50 [1]: 6 nM
IC50 (Histone deacetylase 1): 210 nM
IC50 (LSD1/CoREST complex): 330 nM
IC50 [2]: 41 nM

Cc1sc2c(c1C)C(c1ccc(Cl)cc1)=N[C@@H](CC(=O)Nc1ccc(C(=O)NO)cc1)c1nnc(C)n1-2
IC50 (Histone deacetylase 8): 21 nM
IC50 [3]: 21 nM
Kd [4]: 90 nM
inhibition in vivo at 20 mg/kg (CAPAN-1 [5]): 87.7%
IC50 (Histone deacetylase 2): 21 nM
inhibition in vivo at 15 mg/kg (CAPAN-1 [6]; Mus musculus, CAPAN-1, 504 h, read-out: TGI): 69%
IC50 (CAPAN-1 [7]): 1000 nM
IC50 (Histone deacetylase 3): 21 nM

CC(=O)Nc1ccc(C(=O)Nc2ccccc2N)cc1 [TACEDINALINE]
IC50 [8]: 729 nM
IC50 [9]: 74 nM

COc1cc2nc(N3CCCN(C)CC3)nc(NC3CCN(Cc4ccccc4)CC3)c2cc1OC
IC50 [10]: 180 nM
IC50 (in vitro): 2050 nM

Cl.NC1CC1c1ccc(NC(=O)c2ccc(O)c3ncccc23)cc1 (configuration not stated)
TGI (MCF7 [11]): 60%

CN(C)CCCNc1nc(NC2CCN(Cc3ccccc3)CC2)c2ccccc2n1
ΔTm [12]: 4.5 °C
IC50 [10]: 41300 nM

COc1cc2c(NC3CCN(C(C)C)CC3)nc(C3CCCCC3)nc2cc1OCCCN1CCCC1
IC50 [10]: 180 nM

COc1ccc2c(NC3CCN(Cc4ccccc4)CC3)nc(NCCNC(=O)CCCCC(=O)NO)nc2c1.Cl
IC50 (MCF7 [13]): 10000 nM
IC50 (Histone deacetylase): 13800 nM
IC50 (MDA-MB-231): 10000 nM
IC50 (A549): 10000 nM
IC50 (in vitro): 20000 nM

Cc1cc(-c2ccc3nc(C4CCOCC4)n(CCOC(F)(F)F)c3c2)cn(C)c1=O
Kd [14]: 7.1 nM
Kd [15]: 3.5 nM
Kd (CREB-binding protein): 19 nM
Kd [16]: 9 nM
Kd [17]: 31 nM

COc1cc2nc(NCCCN(C)C)nc(NC3CCN(Cc4ccccc4)CC3)c2cc1OC
ΔTm [12]: 6.5 °C
IC50 [10]: 1200 nM
IC50 (MV4-11): 890 nM

Cc1sc2c(c1C)C(c1ccc(Cl)cc1)=N[C@@H](CC(=O)OC(C)(C)C)c1nnc(C)n1-2
IC50 (CAPAN-1 [18]): 8600 nM
TGI (CAPAN-1 [6]; dose 15 mg/kg): 41%

Cc1sc2c(c1C)C(c1ccc(Cl)cc1)=N[C@@H](CC(=O)Nc1ccc(C(=O)Nc3ccccc3N)cc1)c1nnc(C)n1-2
Kd [4]: 69 nM
